The values that follow come from US20180000085A1, “USE OF PICOLINAMIDE COMPOUNDS WITH FUNGICIDAL ACTIVITY” (DOW AGROSCIENCES LLC, priority 2014, published 2018).

One assay has as its system Puccinia triticina. Description: Wheat brown rust (PUCCRT) disease control on wheat seedlings. The class given is in vivo. The arrangement: key to PUCCRT 3DC, HV activity at 100 ppm (% control rating) / PUCCRT disease control, 3DC / PUCCRT 1DP disease control rating, HV activity / PUCCRT 3DC disease control rating, HV activity / PUCCRT 3DC, LV activity at 125.1 g/H (% Control rating) / PUCCRT 1DP, LV activity at 125.1 g/H (% Control rating) / PUCCRT 3DC disease control rating, LV activity at 125.1 g/H / PUCCRT 1DP disease control rating, LV activity at 125.1 g/H / PUCCRT 3DC disease control rating, HV activity at 100 ppm / PUCCRT 1DP disease control rating, HV activity at 100 ppm / HV activity at 100 ppm PUCCRT 3DC (disease control rating) / LV activity at 125.1 g/H PUCCRT 1DP (disease control rating) / LV activity at 125.1 g/H PUCCRT 3DC (disease control rating): A: > 80; B: ≤ 80; C: Not Tested; D: No Activity Observed in the Reported Assay. The settings on record: for PUCCRT 1DP, LV activity at 125.1 g/H (% Control rating) / PUCCRT 3DC, LV activity at 125.1 g/H (% Control rating) / PUCCRT 1DP disease control rating, LV activity at 125.1 g/H / PUCCRT 3DC disease control rating, LV activity at 125.1 g/H / LV activity at 125.1 g/H PUCCRT 1DP (disease control rating) / LV activity at 125.1 g/H PUCCRT 3DC (disease control rating): low volume application; for PUCCRT 1DP disease control rating, LV activity at 125.1 g/H: 1 day protectant; for PUCCRT 3DC disease control rating, LV activity at 125.1 g/H: 3 day curative; for PUCCRT 1DP disease control rating, HV activity / PUCCRT 3DC disease control rating, HV activity: HV application at 100 ppm.

Another assay relates to Zymoseptoria tritici. As to the kind of experiment: Leaf blotch of wheat (SEPTTR) disease control on wheat seedlings. The class given is in vivo. Details: key to SEPTTR 1DP, HV activity at 100 ppm (% control rating) / SEPTTR 3DC, HV activity at 100 ppm (% control rating) / SEPTTR disease control, 1DP / SEPTTR disease control, 3DC / SEPTTR 1DP disease control rating, HV activity / SEPTTR 3DC disease control rating, HV activity / SEPTTR 3DC, LV activity at 125.1 g/H (% Control rating) / SEPTTR 1DP, LV activity at 125.1 g/H (% Control rating) / SEPTTR 1DP disease control rating, LV activity at 125.1 g/H / SEPTTR 3DC disease control rating, LV activity at 125.1 g/H / SEPTTR 3DC disease control rating, HV activity at 100 ppm / SEPTTR 1DP disease control rating, HV activity at 100 ppm / HV activity at 100 ppm SEPTTR 3DC (disease control rating) / HV activity at 100 ppm SEPTTR 1DP (disease control rating) / LV activity at 125.1 g/H SEPTTR 1DP (disease control rating) / LV activity at 125.1 g/H SEPTTR 3DC (disease control rating): A: > 80; B: ≤ 80; C: Not Tested; D: No Activity Observed in the Reported Assay. The settings on record: for SEPTTR 1DP, LV activity at 125.1 g/H (% Control rating) / SEPTTR 3DC, LV activity at 125.1 g/H (% Control rating) / SEPTTR 1DP disease control rating, LV activity at 125.1 g/H / SEPTTR 3DC disease control rating, LV activity at 125.1 g/H / LV activity at 125.1 g/H SEPTTR 1DP (disease control rating) / LV activity at 125.1 g/H SEPTTR 3DC (disease control rating): low volume application; for SEPTTR 1DP disease control rating, LV activity at 125.1 g/H: 1 day protectant; for SEPTTR 3DC disease control rating, LV activity at 125.1 g/H: 3 day curative; for SEPTTR 1DP disease control rating, HV activity / SEPTTR 3DC disease control rating, HV activity: HV application at 100 ppm.

Where [1] appears, read: 1 Day Protectant, wheat brown rust.
Where [2] appears, read: 3 Day Curative, wheat brown rust.
[3] abbreviates: 1 Day Protectant, wheat leaf blotch.
Setting [4] is: 3 Day Curative, wheat leaf blotch.

Consider `COc1ccnc(C(=O)N[C@@H](Cc2ccccc2)C(=O)O[C@@H](C)[C@H](Oc2cccc(F)c2)c2ccccc2)c1OC(C)=O` [Cmpd 577], for which the “PUCCRT 1DP, LV activity at 125.1 g/H (% Control rating)” value (shortened to “PUCCRT 1DP … (% Control rating)”) in the assay on Puccinia triticina (1 Day Protectant) is recorded as “A (> 80)”. Besides, the “PUCCRT 3DC, LV activity at 125.1 g/H (% Control rating)” value (“PUCCRT 3DC … (% Control rating)” for short) in the assay on Puccinia triticina (3 Day Curative) is recorded as “B (≤ 80)”. In the assay on Zymoseptoria tritici (1 Day Protectant), the “SEPTTR 1DP, LV activity at 125.1 g/H (% Control rating)” value (“SEPTTR 1DP … (% Control rating)” below) was “B (≤ 80)”. The “SEPTTR 3DC, LV activity at 125.1 g/H (% Control rating)” value (shortened to “SEPTTR 3DC … (% Control rating)”) in the assay on Zymoseptoria tritici (3 Day Curative) was “D”.
Consider `COc1ccnc(C(=O)N[C@@H](C)C(=O)O[C@@H](C)[C@@H](COc2ccccc2)Oc2ccccc2)c1OC(C)=O` [Cmpd 488], for which the “PUCCRT 1DP … (% Control rating)” value in the assay on Puccinia triticina (1 Day Protectant) is recorded as “A (> 80)”. In the assay with Puccinia triticina (3 Day Curative), the “PUCCRT 3DC … (% Control rating)” value was “A (> 80)”. For the same molecule, in the assay with Zymoseptoria tritici (1 Day Protectant), the “SEPTTR 1DP … (% Control rating)” value is listed as “A (> 80)”. The “SEPTTR 3DC … (% Control rating)” value with Zymoseptoria tritici (3 Day Curative) is “B (≤ 80)”.
Turning to `CC(=O)Oc1cccnc1C(=O)NC(C)C(=O)OC(C)C(Oc1ccccc1)C(C)C` (stereo not shown) [Cmpd 678], in the assay on Puccinia triticina, the “PUCCRT 1DP disease control rating, LV activity at 125.1 g/H” value was “B (≤ 80)” and the “PUCCRT 3DC disease control rating, LV activity at 125.1 g/H” value is “D”. Moreover, in the assay on Zymoseptoria tritici, the “SEPTTR 1DP disease control rating, LV activity at 125.1 g/H” value is on record as “A (> 80)” and the “SEPTTR 3DC disease control rating, LV activity at 125.1 g/H” value is reported as “B (≤ 80)”.
As for `CCOc1ccnc(C(=O)N[C@@H](C)C(=O)O[C@@H](C)[C@@H](CC(C)C)Oc2ccc(Cl)c(OC)c2)c1OC(C)=O` [Cmpd 1110], the “LV activity at 125.1 g/H PUCCRT 1DP (disease control rating)” value in the assay with Puccinia triticina (setting [1]) is “D”. Moreover, the “LV activity at 125.1 g/H PUCCRT 3DC (disease control rating)” value in the assay on Puccinia triticina (setting [2]) was “D”. In addition, in the assay with Zymoseptoria tritici (setting [3]), the “LV activity at 125.1 g/H SEPTTR 1DP (disease control rating)” value is “D”. The “LV activity at 125.1 g/H SEPTTR 3DC (disease control rating)” value with Zymoseptoria tritici (setting [4]) is listed as “D”.
In the case of `CC[C@@H](CCC(C)C)[C@H](OCC1CC1)[C@H](C)OC(=O)[C@H](C)NC(=O)c1nccc(OC)c1OCOC(C)=O` [Cmpd 503], the “PUCCRT 1DP … (% Control rating)” value with Puccinia triticina (1 Day Protectant) is “A (> 80)”. In addition, the “PUCCRT 3DC … (% Control rating)” value in the assay on Puccinia triticina (3 Day Curative) is recorded as “A (> 80)”. Also, the “SEPTTR 1DP … (% Control rating)” value in the assay with Zymoseptoria tritici (1 Day Protectant) is reported as “B (≤ 80)”. In the assay with Zymoseptoria tritici (3 Day Curative), the “SEPTTR 3DC … (% Control rating)” value is “A (> 80)”.
For the molecule `COc1ccnc(C(=O)NC(C)C(=O)OC(C(C)C)C(Oc2ccccc2)C(C)C)c1OCOC(C)=O` (stereo not shown) [Cmpd 1088], in the assay on Puccinia triticina (setting [1]), the “LV activity at 125.1 g/H PUCCRT 1DP (disease control rating)” value was “B (≤ 80)”. The “LV activity at 125.1 g/H PUCCRT 3DC (disease control rating)” value with Puccinia triticina (setting [2]) is recorded as “D”. The “LV activity at 125.1 g/H SEPTTR 1DP (disease control rating)” value in the assay with Zymoseptoria tritici (setting [3]) is recorded as “D”. Besides, the “LV activity at 125.1 g/H SEPTTR 3DC (disease control rating)” value in the assay with Zymoseptoria tritici (setting [4]) is “D”.
As to `CCC(CC)C(Oc1cc(F)ccc1F)C(C)OC(=O)C(CC(C)C)NC(=O)c1nccc(OC)c1OC(C)=O` (stereo not shown) [Cmpd 687], in the assay on Puccinia triticina, the “PUCCRT 1DP disease control rating, LV activity at 125.1 g/H” value is reported as “D” and the “PUCCRT 3DC disease control rating, LV activity at 125.1 g/H” value is given as “B (≤ 80)”. Further, in the assay on Zymoseptoria tritici, the “SEPTTR 1DP disease control rating, LV activity at 125.1 g/H” value is reported as “D” and the “SEPTTR 3DC disease control rating, LV activity at 125.1 g/H” value is reported as “B (≤ 80)”.
In the case of `COc1ccnc(C(=O)N[C@@H](C)C(=O)O[C@@H](C)COCC2CC2)c1O` [Cmpd 338], the “PUCCRT 1DP disease control rating, HV activity” value in the assay on Puccinia triticina (setting [1]) is reported as “B (≤ 80)”. Besides, the “PUCCRT 3DC disease control rating, HV activity” value with Puccinia triticina (setting [2]) was “D”. Further, in the assay with Zymoseptoria tritici (setting [3]), the “SEPTTR 1DP disease control rating, HV activity” value was “B (≤ 80)”. In addition, the “SEPTTR 3DC disease control rating, HV activity” value with Zymoseptoria tritici (setting [4]) was “D”.
Regarding `C=CC(OCCC)C(Oc1ccccc1)C(C)OC(=O)C(C)NC(=O)c1nccc(OC)c1OC(C)=O` (stereo not shown) [Cmpd 456], in the assay with Puccinia triticina (setting [1]), the “PUCCRT 1DP disease control rating, HV activity” value was “A (> 80)”. In addition, the “PUCCRT 3DC disease control rating, HV activity” value with Puccinia triticina (setting [2]) is listed as “A (> 80)”. The “PUCCRT 1DP disease control rating, LV activity” value in the assay with Puccinia triticina (Low volume application at 125.1 g/H, 1 Day Protectant, wheat brown rust) was “A (> 80)”. Also, the “PUCCRT 3DC disease control rating, LV activity” value in the assay with Puccinia triticina (Low volume application at 125.1 g/H, 3 Day Curative, wheat brown rust) is listed as “A (> 80)”. Also, in the assay on Zymoseptoria tritici (setting [3]), the “SEPTTR 1DP disease control rating, HV activity” value is listed as “A (> 80)”. In the assay on Zymoseptoria tritici (setting [4]), the “SEPTTR 3DC disease control rating, HV activity” value is listed as “A (> 80)”. For the same molecule, the “SEPTTR 1DP disease control rating, LV activity” value with Zymoseptoria tritici (Low volume application at 125.1 g/H, 1 Day Protectant, wheat leaf blotch) was “A (> 80)”. Also, in the assay on Zymoseptoria tritici (Low volume application at 125.1 g/H, 3 Day Curative, wheat leaf blotch), the “SEPTTR 3DC disease control rating, LV activity” value is “A (> 80)”.
